The numbers were not newly measured in patent US7968117B1, “Externally triggered microcapsules” (The United States of America as represented by the …, priority 1994, dated 2011), which cites them from elsewhere.

The structures appear in SMILES notation.

The conditions of data set [1]: preferred value within the printed range.
For data set [2] the following is noted: dogs' brain, artificially heated region.

As for `CCCCCCCCCCCCCCCCCC(=O)OCC(O)CO` (centres unmarked) [Glycerol Monostearate (gms), Glycerol Monostearate], in data set [1], the “HLB (preferred)” value was “(3.8 preferred)”. `Cc1cc(-c2ccc(/N=N/c3ccc4c(S(=O)(=O)[O-])cc(S(=O)(=O)[O-])c(N)c4c3O)c(C)c2)ccc1/N=N/c1ccc2c(S(=O)(=O)[O-])cc(S(=O)(=O)[O-])c(N)c2c1O.[Na+].[Na+].[Na+].[Na+]` [free Eb, Evans blue dye]: the “heating temperature of the brain regions showing extravasation of Eb” value in data set [2] is “greater than 44 °C”.
